Where a chain is given by its changes, count along the chain named.
Assays:
Type in all cases: cell-based
GPR139 E105Q3x29 = molecular target: T1, GPR139 E105Q3x29 (Homo sapiens, UniProt Q6DWJ6, E105Q); experiment: Fluo-4 Ca2+-assay, GPR139 mutant E105Q
T1 construct: mGluR5 signal peptide (N); expressed in transfected cells; host or cells: HEK293
T1 sequence (Q6DWJ6 2-353 E105Q limits assumed): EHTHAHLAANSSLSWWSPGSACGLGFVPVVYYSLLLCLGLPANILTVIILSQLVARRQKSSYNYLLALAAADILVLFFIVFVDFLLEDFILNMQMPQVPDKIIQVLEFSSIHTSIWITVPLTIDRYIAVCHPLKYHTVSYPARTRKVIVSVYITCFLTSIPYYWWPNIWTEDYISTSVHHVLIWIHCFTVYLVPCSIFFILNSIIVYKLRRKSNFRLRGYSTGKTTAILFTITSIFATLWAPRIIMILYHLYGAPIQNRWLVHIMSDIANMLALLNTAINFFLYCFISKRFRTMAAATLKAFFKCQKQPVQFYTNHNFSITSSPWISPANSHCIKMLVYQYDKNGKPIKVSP
Text: (§1) To study the influence of specific amino acids in the predicted binding pocket on receptor function, the desired mutations were introduced into an N-terminally c-myc-tagged wild type human GPR139 (NM_001002911.3) in the pEGFP-N1 vector (BD Biosciences)[32], [33]. As previously described, these plasmids carry the signal peptide of mGluR5 to promote cell surface expression followed by a c-myc epitope to enable detection of total and surface expression by ELISA, followed by an engineered MluI and NotI site for easy insertion of the receptor of interest. Furthermore, the start-codon in the GPR139 sequence was deleted to ensure c-myc-tagging. […]
(§2) The Ca^2+ measurements were preformed using the Fluo-4 NW Calcium Assay Kit (Invitrogen, Molecular Probes, F36206) as previously described. […] Intracellular calcium changes were recorded as indicated on either a NOVOstar (BMG Labtech) at 37 °C with an excitation filter of 485 nm and an emission filters 520 nm or a FlexStation 3 Benchtop Multi-Mode Microplate Reader (Molecular Devices) at 37 °C with an excitation wavelength of 485 nm and emission of 525 nm.
(§3) All pharmacological data have been analyzed by using Prism 6.0 (GraphPad Software Inc., San Diego). […] Changes in potency (pEC50) and span of myc-GPR139(WT) in comparison to untagged GPR139(WT) was statistically analyzed with a paired t-test and significance was accepted at p < 0.05. […]

GPR139 E108Q3x32 = molecular target: T2, GPR139 E108Q3x32 (Homo sapiens, UniProt Q6DWJ6, E108Q); experiment: Fluo-4 Ca2+-assay, GPR139 mutant E108Q
T2 construct: mGluR5 signal peptide (N); expressed in transfected cells; host or cells: HEK293
T2 sequence (Q6DWJ6 2-353 E108Q limits assumed): T1 sequence (Q6DWJ6 2-353 E105Q limits assumed) with Q104E, E107Q
Text: To study the influence of specific amino acids in the predicted binding pocket on receptor function, the desired mutations were introduced into an N-terminally c-myc-tagged wild type human GPR139 (NM_001002911.3) in the pEGFP-N1 vector (BD Biosciences)[32], [33]. As previously described, these plasmids carry the signal peptide of mGluR5 to promote cell surface expression followed by a c-myc epitope to enable detection of total and surface expression by ELISA, followed by an engineered MluI and NotI site for easy insertion of the receptor of interest. Furthermore, the start-codon in the GPR139 sequence was deleted to ensure c-myc-tagging. Mutagenesis was designed in Serial Cloner 2.6 (© Franck Perez [SerialBasics]) and carried out by GenScript (USA). All mutated residues are illustrated in Supplementary Fig. 1b. An untagged GPR139(WT) in pEGFP-N1 was also generated to ensure that the c-myc-tag had no influence on GPR139(WT) function.
All GPR139 mutants were transfected into HEK293 cells. The HEK293 cells were grown in Dulbecco’s modified Eagle’s medium (DMEM) (Gibco, 41965) supplemented with 10% dialyzed fetal bovine serum (Gibco, 26400, United States origin), 100 units/mL penicillin and 100 μg/mL streptomycin (Gibco, 15140). HEK293 cells were reverse transfected using Lipofectamine2000 (Invitrogen). […]
as §2, §3

untagged GPR139(WT) = molecular target: T3, untagged GPR139(WT) (Homo sapiens, UniProt Q6DWJ6); experiment: Fluo-4 Ca2+-assay, untagged wild-type GPR139 in HEK293; details: untagged WT receptor
T3 construct: expressed in transfected cells; host or cells: HEK293
T3 sequence (Q6DWJ6 1-353): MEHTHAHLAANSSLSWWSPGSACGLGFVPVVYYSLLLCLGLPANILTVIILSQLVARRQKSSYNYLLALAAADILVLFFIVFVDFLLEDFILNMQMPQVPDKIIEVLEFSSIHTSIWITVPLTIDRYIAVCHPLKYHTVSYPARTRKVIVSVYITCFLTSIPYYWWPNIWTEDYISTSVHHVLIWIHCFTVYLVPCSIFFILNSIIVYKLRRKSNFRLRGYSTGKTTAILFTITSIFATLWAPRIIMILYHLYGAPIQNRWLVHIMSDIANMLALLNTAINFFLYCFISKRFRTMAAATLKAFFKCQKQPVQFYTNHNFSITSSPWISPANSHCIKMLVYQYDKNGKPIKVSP
Text: as §1, §2, §3

EC50 (GPR139 E105Q3x29; E105Q mutant): 145 nM | Emax (GPR139 E105Q3x29; E105Q, normalized to buffer (0%) and 8 µM 1a (100%)): 177 ± 36% | EC50 (GPR139 E108Q3x32; E108Q mutant): 1510 nM | potency reduction (GPR139 E108Q3x32; E108Q mutant versus WT): 6 fold | Emax (GPR139 E108Q3x32; E108Q, normalized to buffer (0%) and 8 µM 1a (100%)): 217 ± 21% | EC50 (untagged GPR139(WT)): 772 nM
Structure (SMILES): COc1cc(OC)cc(C(=O)NNC(=O)Nc2cccc3ccccc23)c1 [Compound 1a]

From article PMC5430874 (Scientific Reports, 2017)
